The test system of series [1] is K562. The experiment in a line: Antiproliferative activity against human K562 cells after 72 hrs by MTT assay. The format is functional, cell-based. The note with it: K562, 72 h.
Series [2] has as its target DNMT3A2/3L complex (Homo sapiens) (UniProt Q9Y6K1+Q9UJW3). The experiment in a line: Inhibition of DNMT3A/3L (unknown origin) at 100 uM using biotinylated DNA oligonucleotides as substrate preincubated for 15 mins followed by substrate/[3H]-SAM addition measured after 4 hrs by liquid scintillation counting analysis. The format is protein-complex assay.
For another series, the target named is Histone deacetylase 1 (Homo sapiens, UniProt Q13547). The series can be described thus: Inhibition of HDAC1 (unknown origin) preincubated for 15 mins followed by substrate addition measured after 60 mins by fluorescence assay.
In series [3] the target is DNA (cytosine-5)-methyltransferase 1 (Homo sapiens) (UniProt P26358). The experiment in a line: Inhibition of DNMT1 (unknown origin) at 100 uM using poly(dI-dC).poly(dI-dC) as substrate preincubated for 15 mins followed by substrate/[3H]-SAM addition measured after 120 mins by liquid scintillation counting analysis.
The target in series [4] is T1, Protein deacetylase HDAC6 (Homo sapiens, UniProt Q9UBN7).
T1 sequence (Q9UBN7 whole entry): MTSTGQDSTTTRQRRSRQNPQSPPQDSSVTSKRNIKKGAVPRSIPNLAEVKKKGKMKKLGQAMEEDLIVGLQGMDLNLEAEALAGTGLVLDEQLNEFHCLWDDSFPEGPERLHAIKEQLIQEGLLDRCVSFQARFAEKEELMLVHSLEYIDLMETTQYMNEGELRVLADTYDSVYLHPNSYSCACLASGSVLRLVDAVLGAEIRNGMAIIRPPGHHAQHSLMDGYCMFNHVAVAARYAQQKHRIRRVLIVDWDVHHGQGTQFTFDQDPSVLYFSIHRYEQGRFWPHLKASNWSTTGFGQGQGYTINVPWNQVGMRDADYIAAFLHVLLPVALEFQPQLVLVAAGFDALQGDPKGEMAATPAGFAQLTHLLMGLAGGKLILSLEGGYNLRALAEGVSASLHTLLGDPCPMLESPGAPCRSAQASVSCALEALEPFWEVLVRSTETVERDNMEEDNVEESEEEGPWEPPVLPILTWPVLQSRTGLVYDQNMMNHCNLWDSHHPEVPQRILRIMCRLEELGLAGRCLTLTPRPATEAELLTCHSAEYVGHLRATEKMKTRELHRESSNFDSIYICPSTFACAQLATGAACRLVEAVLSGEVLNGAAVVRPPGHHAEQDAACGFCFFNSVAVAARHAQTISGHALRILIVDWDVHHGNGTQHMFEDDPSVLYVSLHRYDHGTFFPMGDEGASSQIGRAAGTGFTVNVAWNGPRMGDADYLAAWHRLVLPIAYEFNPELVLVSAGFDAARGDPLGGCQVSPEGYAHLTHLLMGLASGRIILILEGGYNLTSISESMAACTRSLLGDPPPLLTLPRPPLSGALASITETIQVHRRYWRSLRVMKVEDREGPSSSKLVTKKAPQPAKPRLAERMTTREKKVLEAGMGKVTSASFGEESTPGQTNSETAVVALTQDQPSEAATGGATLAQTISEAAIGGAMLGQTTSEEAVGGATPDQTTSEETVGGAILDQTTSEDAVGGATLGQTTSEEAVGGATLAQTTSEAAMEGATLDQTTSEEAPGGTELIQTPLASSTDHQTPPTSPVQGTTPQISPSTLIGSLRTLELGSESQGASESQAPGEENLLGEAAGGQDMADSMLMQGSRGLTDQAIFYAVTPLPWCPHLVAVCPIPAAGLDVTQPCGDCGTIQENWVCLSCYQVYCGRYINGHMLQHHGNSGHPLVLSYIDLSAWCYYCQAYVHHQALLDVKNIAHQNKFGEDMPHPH
The experiment in a line: Inhibition of HDAC6 (unknown origin) preincubated for 15 mins followed by substrate addition measured after 60 mins by fluorescence assay.

The subject of series [5] is U-937. The series can be described thus: Antiproliferative activity against human U937 cells after 72 hrs by MTT assay. The note with it: U-937, 72 h. The format is functional, cell-based.
Series [6] concerns the target DNMT3B-DNMT3L complex (Homo sapiens) (UniProt Q9UBC3+Q9UJW3). The experiment in a line: Inhibition of DNMT3B/3L (unknown origin) at 100 uM using biotinylated DNA oligonucleotides as substrate preincubated for 15 mins followed by substrate/[3H]-SAM addition measured after 4 hrs by liquid scintillation counting analysis. The format is protein-complex assay.
Series [7] deals with U-937. The series can be described thus: Growth inhibition of human U937 cells at 50 uM after 72 hrs by MTT assay. The format is functional. As to conditions: U-937, 72 h, read-out: GI. (Tetrazolium dyes change colour on reduction, which living cells bring about.)
In series [8] the test system is Salmonella typhimurium. The experiment in a line: Genotoxicity in Salmonella typhimurium TA98 at 50 times IC50 by Ames test. The format is toxicity. As to conditions: salmonella enterica subsp. enterica serovar typhimurium. A general note: The Ames test detects mutagens through reverse mutation in bacteria.
For series [9], the system named is Salmonella typhimurium. The experiment in a line: Genotoxicity in Salmonella typhimurium TA102 at 50 times IC50 by Ames test. The format is toxicity. The note with it: salmonella enterica subsp. enterica serovar typhimurium.
Series [10] relates to Salmonella typhimurium. The experiment in a line: Genotoxicity in Salmonella typhimurium TA97 at 50 times IC50 by Ames test. The format is toxicity. The note with it: salmonella enterica subsp. enterica serovar typhimurium.
For series [11], the system named is Salmonella typhimurium. The experiment in a line: Genotoxicity in Salmonella typhimurium TA1535 at 50 times IC50 by Ames test. The format is toxicity. As to conditions: salmonella enterica subsp. enterica serovar typhimurium.
Series [12] has as its system K562. The experiment in a line: Growth inhibition of human K562 cells at 50 uM after 72 hrs by MTT assay. The format is functional. As to conditions: K562, 72 h, read-out: GI.

Sequence of DNMT3B-DNMT3L complex (Homo sapiens) (Q9UJW3 whole entry, looked up, other chains not shown): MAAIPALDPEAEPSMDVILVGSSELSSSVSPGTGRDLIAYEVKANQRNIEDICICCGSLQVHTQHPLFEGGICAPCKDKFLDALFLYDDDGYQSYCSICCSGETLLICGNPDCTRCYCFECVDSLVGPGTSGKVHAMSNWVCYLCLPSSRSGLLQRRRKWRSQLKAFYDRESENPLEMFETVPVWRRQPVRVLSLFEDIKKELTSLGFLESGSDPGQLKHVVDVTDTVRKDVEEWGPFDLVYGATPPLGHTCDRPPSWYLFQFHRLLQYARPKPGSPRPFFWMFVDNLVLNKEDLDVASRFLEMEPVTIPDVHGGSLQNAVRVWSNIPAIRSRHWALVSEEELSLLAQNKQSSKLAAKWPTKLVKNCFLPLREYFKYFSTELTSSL
Sequence of DNMT3A2/3L complex (Homo sapiens) (Q9UJW3 whole entry, looked up): as the sequence (Q9UJW3 whole entry, looked up, other chains not shown) above
Sequence of DNMT3A2/3L complex (Homo sapiens) (Q9Y6K1 whole entry, looked up): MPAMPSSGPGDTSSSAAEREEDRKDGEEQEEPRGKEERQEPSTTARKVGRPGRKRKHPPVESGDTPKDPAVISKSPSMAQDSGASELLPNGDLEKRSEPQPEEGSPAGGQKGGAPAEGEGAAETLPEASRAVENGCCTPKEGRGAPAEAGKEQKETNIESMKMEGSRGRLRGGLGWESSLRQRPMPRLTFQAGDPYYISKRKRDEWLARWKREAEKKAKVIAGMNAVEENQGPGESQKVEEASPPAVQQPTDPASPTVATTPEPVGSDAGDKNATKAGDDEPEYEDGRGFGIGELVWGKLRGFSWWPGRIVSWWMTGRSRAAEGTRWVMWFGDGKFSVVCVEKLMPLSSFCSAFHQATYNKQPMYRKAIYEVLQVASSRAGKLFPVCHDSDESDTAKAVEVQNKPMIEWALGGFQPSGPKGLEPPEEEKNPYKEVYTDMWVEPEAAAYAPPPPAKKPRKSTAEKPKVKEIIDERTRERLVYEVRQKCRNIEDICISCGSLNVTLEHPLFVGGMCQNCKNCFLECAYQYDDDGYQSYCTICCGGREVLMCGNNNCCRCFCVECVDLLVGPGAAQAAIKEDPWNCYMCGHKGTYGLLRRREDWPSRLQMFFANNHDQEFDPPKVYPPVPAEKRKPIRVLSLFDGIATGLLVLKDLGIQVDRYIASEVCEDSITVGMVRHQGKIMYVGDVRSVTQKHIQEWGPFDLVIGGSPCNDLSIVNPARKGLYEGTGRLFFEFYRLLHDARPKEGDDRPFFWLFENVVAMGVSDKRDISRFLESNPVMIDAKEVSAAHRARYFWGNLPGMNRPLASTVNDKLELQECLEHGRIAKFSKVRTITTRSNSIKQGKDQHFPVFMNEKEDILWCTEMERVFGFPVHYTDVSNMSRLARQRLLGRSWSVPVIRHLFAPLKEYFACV
Sequence of DNA (cytosine-5)-methyltransferase 1 (Homo sapiens) (P26358 whole entry): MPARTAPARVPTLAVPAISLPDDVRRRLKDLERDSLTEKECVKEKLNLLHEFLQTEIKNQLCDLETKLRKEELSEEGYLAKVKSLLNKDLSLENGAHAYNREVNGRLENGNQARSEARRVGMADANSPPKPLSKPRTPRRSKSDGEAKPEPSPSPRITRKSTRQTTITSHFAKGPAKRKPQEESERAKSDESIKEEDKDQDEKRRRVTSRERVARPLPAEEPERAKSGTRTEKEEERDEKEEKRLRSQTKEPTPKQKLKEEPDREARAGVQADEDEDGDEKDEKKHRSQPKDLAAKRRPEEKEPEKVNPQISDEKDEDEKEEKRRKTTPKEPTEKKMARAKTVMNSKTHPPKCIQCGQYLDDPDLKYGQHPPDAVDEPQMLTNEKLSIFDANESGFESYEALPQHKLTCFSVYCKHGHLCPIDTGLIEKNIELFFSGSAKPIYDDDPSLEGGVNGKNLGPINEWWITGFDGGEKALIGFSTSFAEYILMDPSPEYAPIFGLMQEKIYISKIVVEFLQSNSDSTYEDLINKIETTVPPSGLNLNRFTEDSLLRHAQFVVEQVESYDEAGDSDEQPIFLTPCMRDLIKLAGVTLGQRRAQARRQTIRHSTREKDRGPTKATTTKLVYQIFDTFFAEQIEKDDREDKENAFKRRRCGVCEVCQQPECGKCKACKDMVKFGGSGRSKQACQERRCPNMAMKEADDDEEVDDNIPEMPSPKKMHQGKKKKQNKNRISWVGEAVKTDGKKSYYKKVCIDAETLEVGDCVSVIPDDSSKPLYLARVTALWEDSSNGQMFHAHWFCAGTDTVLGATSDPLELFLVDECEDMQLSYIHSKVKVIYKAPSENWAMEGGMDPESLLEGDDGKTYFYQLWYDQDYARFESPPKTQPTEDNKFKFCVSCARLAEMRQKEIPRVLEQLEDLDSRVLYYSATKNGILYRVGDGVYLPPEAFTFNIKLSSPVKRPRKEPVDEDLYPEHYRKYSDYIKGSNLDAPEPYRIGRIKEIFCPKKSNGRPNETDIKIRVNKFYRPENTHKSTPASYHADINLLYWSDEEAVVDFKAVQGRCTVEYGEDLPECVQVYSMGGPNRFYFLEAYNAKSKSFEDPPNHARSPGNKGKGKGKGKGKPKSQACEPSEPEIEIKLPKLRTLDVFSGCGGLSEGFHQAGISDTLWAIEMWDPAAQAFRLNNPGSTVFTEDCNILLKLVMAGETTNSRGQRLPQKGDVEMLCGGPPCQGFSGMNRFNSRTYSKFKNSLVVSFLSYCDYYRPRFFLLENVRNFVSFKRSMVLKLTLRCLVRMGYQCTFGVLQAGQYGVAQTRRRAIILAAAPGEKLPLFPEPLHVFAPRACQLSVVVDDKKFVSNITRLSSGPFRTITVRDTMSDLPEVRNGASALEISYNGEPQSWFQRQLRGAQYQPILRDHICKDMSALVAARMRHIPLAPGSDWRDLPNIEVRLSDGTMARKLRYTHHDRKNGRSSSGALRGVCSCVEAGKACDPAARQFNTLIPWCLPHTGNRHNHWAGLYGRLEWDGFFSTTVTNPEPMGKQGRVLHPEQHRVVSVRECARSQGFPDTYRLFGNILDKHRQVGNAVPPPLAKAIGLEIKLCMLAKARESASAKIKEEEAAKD
Sequence of Histone deacetylase 1 (Q13547 whole entry): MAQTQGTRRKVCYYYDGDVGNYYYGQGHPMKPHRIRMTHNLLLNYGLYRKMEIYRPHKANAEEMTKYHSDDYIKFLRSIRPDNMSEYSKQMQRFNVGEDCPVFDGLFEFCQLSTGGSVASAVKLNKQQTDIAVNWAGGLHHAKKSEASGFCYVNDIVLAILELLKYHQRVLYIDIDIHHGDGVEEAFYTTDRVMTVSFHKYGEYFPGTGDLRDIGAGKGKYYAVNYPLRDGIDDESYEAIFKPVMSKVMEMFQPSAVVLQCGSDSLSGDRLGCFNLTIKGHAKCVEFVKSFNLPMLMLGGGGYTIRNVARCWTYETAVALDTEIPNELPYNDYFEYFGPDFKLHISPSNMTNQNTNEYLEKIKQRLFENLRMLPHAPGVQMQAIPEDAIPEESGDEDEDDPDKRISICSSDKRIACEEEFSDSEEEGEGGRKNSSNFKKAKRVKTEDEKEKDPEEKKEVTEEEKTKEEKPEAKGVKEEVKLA

For the molecule `O=C(/C=C/c1ccc(CCNC(=O)c2c[nH]c3ncccc23)cc1)NO`, the IC50 (commonly the midpoint of a concentration-inhibition curve) in the series on K562 [1] worked out at 18000 nM; against Histone deacetylase 1, 14.3 nM; in series [4], 8.35 nM; with U-937 [5] it was 17800 nM. Moreover, the inhibition – broadly, the drop in the measured response relative to a control, in per cent – was 21% in [2], 28.1% in [3] and 7.23% in series [6].
In the case of `O=C(/C=C/c1ccc(CCNC(=O)c2ccc3[nH]cnc3c2)cc1)NO`, the IC50 with K562 [1] was found to be 31700 nM; against Histone deacetylase 1, 7.8 nM; in series [4] it was 4.68 nM. The inhibition of growth at 50 µM with U-937 [7] was found to be 45%. For the same molecule, the inhibition in [2] is 41 to 41.2%; in series [3], 47 to 47.4%; in series [6], 30.8%.
As to `COc1ccc(Cl)cc1C(=O)NCCc1cccc(/C=C/C(=O)NO)c1`, the concentration for half-maximal inhibition (IC50) was found to be 3650 nM with K562 [1], 34.6 nM on Histone deacetylase 1, 39.9 nM in [4] and 1070 nM with U-937 [5]. Further, the Activity entry in the series with Salmonella typhimurium [8], in the series with Salmonella typhimurium [9], with Salmonella typhimurium [10] and in the series on Salmonella typhimurium [11] was “Non-Toxic” throughout. For the same molecule, the inhibition in series [2] is 1.97%; in series [3], 36 to 36.4%; in [6], 3.09%.
For the molecule `O=C(/C=C/c1ccc(CCNC(=O)c2ccc3c(c2)OCCO3)cc1)NO`, the IC50 with K562 [1] stood at 1780 nM; against Histone deacetylase 1, 11.3 nM; in series [4] it was 11.9 nM; in the series with U-937 [5] it was 2970 nM. The Activity entry with Salmonella typhimurium [8], with Salmonella typhimurium [9], in the series on Salmonella typhimurium [10] and with Salmonella typhimurium [11] was “Non-Toxic” each time. Further, the inhibition in series [2] was -0.26%; in series [3], 47.9 to 48%; in series [6], 28 to 28.1%.
Consider `O=C(/C=C/c1ccc(CCNC(=O)c2cncc(F)c2)cc1)NO`, for which the IC50 with K562 [1] came out at 7060 nM; against Histone deacetylase 1 it was 25.7 nM; in [4], 35.9 nM; in the series with U-937 [5], 4590 nM. Besides, the Activity result in the series on Salmonella typhimurium [8], in the series on Salmonella typhimurium [9], in the series on Salmonella typhimurium [10] and with Salmonella typhimurium [11] was “Non-Toxic” each time. For the same molecule, the inhibition was 0.9% in [2], 44 to 44.2% in [3] and 1.9% in series [6].
Take `COc1ccc(Cl)cc1C(=O)NCCc1ccc(CCC(=O)NO)cc1`: the concentration for half-maximal inhibition (IC50) is 6230 nM with K562 [1], 72.3 nM at Histone deacetylase 1, 41.4 nM in series [4] and 3950 nM in the series with U-937 [5]. Also, the Activity result with Salmonella typhimurium [8] is recorded as “Non-Toxic”; with Salmonella typhimurium [9] it was “Toxic”; in the series with Salmonella typhimurium [10], “Non-Toxic”; in the series with Salmonella typhimurium [11] it was “Non-Toxic”. The values for the inhibition in series [2], in series [3] and in series [6] were 4.64 to 5%, 23.8 to 24% and 8.26%, respectively.
With `O=C(/C=C/c1ccc(CCNC(=O)c2ccc3c(c2)OCO3)cc1)NO`, the IC50 with K562 [1] worked out at 1120 nM; against Histone deacetylase 1 it was 7.18 nM; in series [4] it was 7.1 nM; in the series with U-937 [5] it was 520 nM. Besides, the Activity entry in the series with Salmonella typhimurium [8] is “Non-Toxic”; with Salmonella typhimurium [9], “Non-Toxic”; with Salmonella typhimurium [10], “Non-Toxic”; in the series on Salmonella typhimurium [11], “Toxic”. Besides, the inhibition in series [2] is -1.03%; in series [3] it was 18.4%; in [6], 9.89%.
In the case of `O=C(/C=C/c1ccc(CCNC(=O)c2ccc3ncccc3c2)cc1)NO`, the concentration for half-maximal inhibition (IC50) in the series on K562 [1] turned out to be 3160 nM; on Histone deacetylase 1, 4 nM; in series [4], 5.28 nM; in the series with U-937 [5], 1260 nM. For the same molecule, the Activity entry in the series with Salmonella typhimurium [8] is reported as “Toxic”; in the series on Salmonella typhimurium [9], “Non-Toxic”; in the series with Salmonella typhimurium [10], “Non-Toxic”; in the series on Salmonella typhimurium [11], “Non-Toxic”. In addition, the figures for the inhibition in [2], in series [3] and in [6] were 19.1%, 22.9% and 50 to 50.1%, respectively.
For the molecule `COc1cc(C(=O)NCCc2ccc(/C=C/C(=O)NO)cc2)ccc1O`, the half-inhibitory concentration (IC50) is 5180 nM in the series with K562 [1], 8.1 nM against Histone deacetylase 1, 10.7 nM in [4] and 10700 nM in the series with U-937 [5]. Moreover, the inhibition in series [2] was determined as 11.2%; in [3], 27.9%; in series [6] it was 15.8%.
Take `Cc1cc(Nc2ccc(NC(=O)c3ccc(Nc4ccnc5ccccc45)cc3)cc2)nc(N)n1`: the 50% inhibitory concentration (IC50) was determined as 1160 nM in the series with K562 [1] and 1560 nM with U-937 [5].
As for `COc1ccc(Cl)cc1C(=O)NCCc1ccc(CCC(=O)O)cc1`, the inhibition of growth at 50 µM with U-937 [7] worked out at 15%; with K562 [12], 20%. Further, the inhibition was 42% in series [2], 34 to 34.1% in [3] and 6.11% in [6].

(Values after ChEMBL document CHEMBL4033641, “Design, synthesis and anticancer potential of NSC-319745 hydroxamic acid derivatives as DNMT and HDAC inhibitors” (Eur J Med Chem, 2017).)
